Test results as given in patent US20030157035A1, “PHOTO STABLE ORGANIC SUNSCREEN COMPOUNDS WITH ANTIOXIDANT PROPERTIES AND COMPOSITIONS OBTAINED THEREFROM” (EM Industries, priority 2001, published 2003).
Read-outs that look alike come from different tables or passages of the source.

Legend:
[1] = DPPH test method (reducing activity of DPPH radical); assay type: biochemical; conditions: absorbance at 517 nm after 20 minutes
Description: A DPPH working solution is then prepared by diluting 100 mL of this concentrate to a final volume of 250 mL (100 μM/mL). A blank 13×100 mm borosilicate glass screw top tube of ethanol (USP) is used to zero the spectrometer (Milton Roy, Spectronic 20+) at 517 nm and a control tube of DPPH working solution is measured under identical conditions, and taken as 0% activity. […] After 20 minutes, the absorbance of each sample is read at 517 nm.
The percent reducing activity (%RA) is calculated using the following equation: [formula]
Where A(0) is the absorbance value of the DPPH working solution at 517nm zeroed against an ethanol blank and A(20) is the absorbance at 517 nm, 20 minutes after combining the antioxidant with the DPPH working solution.
The concentration of antioxidant (mg/ml) in the final assay mixture is calculated based on the dilution of respective aliquots of each compound in the final assay volume and %RA tabulated and plotted as percent activity at each concentration in the dilution series.
The antioxidant activity of selected compounds of this invention was determined from their reducing activity of a DPPH radical.

[2] = UV-visible absorption spectrum; assay type: physicochemical
Description: (§1) Each sunscreen compound is dissolved in 70% ethanol/30% water and the UV visible absorption spectrum measured with a Shimadza UV 2101-double beam spectrophotometer using the solvent as reference. A control solution of Octocrylene is prepared and the UV-visible absorption spectrum measured. Each solution is then illuminated for two hours in the solar simulator. After illumination, the absorption spectrum is again measured for each solution.

[3] = Stabilization of Avobenzone under solar simulator illumination (HPLC); assay type: physicochemical
Description: Individual solutions of selected sunscreen compounds (see Table 1) with Avobenzone were as follows. Each sunscreen compound was dissolved in 50% ethanol/50% H2O solution containing roughly an equal molar amount of Avobenzone. A similar solution containing Di-2-ethylhexyl-2,6-napthalene dicarboxylic acid (DENDA) and Avobenzone was also prepared. Each solution was then illuminated in the solar simulator as configured above for the photostability tests and aliquots of each solution were removed at 30-minute time intervals. These aliquots were injected into an HPLC and the loss of Avobenzone was followed with illumination time. The high performance liquid chromatograph (HPLC) used for all experiments reported therein incorporated a Spectra-Physics model P-200 pump with an Applied Biosystems model 785A UV-Visible detector with a Rheodyne manual injector incorporating a […] sample loop and a 150×4.6 mm reversed-phase C18 column (Alltech). All analyses were carried out under isocratic elution conditions using […] mixtures for the mobile phase at a flow rate of […] per minute. It was necessary to employ HPLC separation of Avobenzone from each of the sunscreen compounds to quantify Avobenzone due to the absorption spectra overlap with some of these compounds.

[4] = Photostability in Xe-arc solar simulator (loss of UV absorption); conditions: 70% ethanol/30% water, about 250 J/cm^2
Description: Compounds are illuminated in a solar simulator incorporating a 1 kw Xe arc lamp, optical bench and illumination chamber. The entire output of the illumination system is focused onto the face of a 1 centimeter Cuvette (an area of 4 cm^2) that contains the dilute samples of a compound of Formula I. The samples experience roughly 250 J/cm^2 of radiation between 290 and 400 nm over a period of two hours. The solutions contain between 0.0056 mg/ml and 2.5 mg/ml.
A solar simulator used for illumination of the samples in the experiments is constructed incorporating a 1 kw Xe arc lamp, optical bench and sample illumination chamber. The lamp output is filtered through a water filter with a course window to remove most of the infrared radiation and optical filters to remove wavelengths below 290 mn. The output of the illumination system is focused onto the face of a 1 cm quartz Cuvette that is thermally equilibrated with a constant temperature water bath at 25° C. A magnetic stir is mounted under the Cuvette so that the samples could be stirred while being illuminated. An electric shutter is controlled by a dark room timer to provide precise control of illumination times. The solar simulator is constructed to provide illumination that closely matches terrestrial sunlight. The solar simulator delivers roughly 250 J/cm^2 over a 2-hour period of illumination in a 290-490 nm range. This irradiance is determined using two nitrobenzaldehyde chemical actinometry. The irradiance is much higher than other solar simulator systems which typically illuminate a large area in order to illuminate many samples simultaneously rather than being focused down to a very small area.
as §1

[5] = Product/Avobenzone (1:1, w/w), % Loss of Avobenzone by HPLC, solar simulator, 2 hrs

λmax, nm (Ethanol) [2] [nm]	Stabilization of Avobenzone % Loss of Avobenzone in 2 hrs [3, 5]	Photostability % Loss in 2 hrs [4] [%]	Stabilization of Avobenzone % Loss of Avobenzone in 2 hrs [3] [%]	Compound	% Reducing Activity of DPPH Radical at 30 μg/ml [1] [%]
334			2.5	CCCCC(CC)COC(=O)C(=Cc1cc(OC)c(O)c(C(C)C)c1)C(=O)OCC(CC)CCCC (stereo not shown) [di-(2-ethyhexyl)-3-methoxy-4-hydroxy-5-isopropyl-benzylidene malonate]	11.2
303	1.5%	2.8		CCCCC(CC)COC(=O)C(C#N)=C(c1ccccc1)c1ccccc1 (stereo not shown) [Octocrylene, reference compound]	

Continued, compound first:

Compound	λmax, nm (Ethanol) [2] [nm]	Stabilization of Avobenzone % Loss of Avobenzone in 2 hrs [3, 5]	Photostability % Loss in 2 hrs [4] [%]	Stabilization of Avobenzone % Loss of Avobenzone in 2 hrs [3] [%]	% Reducing Activity of DPPH Radical at 30 μg/ml [1] [%]
COc1cc(C=C(C(C)=O)C(=O)OCCC(C)C)ccc1O [Iso-amyl-alpha-acetyl-3-methoxy-4-hydroxy-cinnamate]	339	insignificant	4.1		22
COc1ccc(C(=O)CC(=O)c2ccc(C(C)(C)C)cc2)cc1 [Avobenzone, reference compound]	358		37		
COc1cc(C=C(C(C)=O)C(=O)OCCC(C)C)cc(C(C)C)c1O [Isoamyl-alpha-acetyl-3-methoxy-4-hydroxy-5-isopropyl-cinnamate]	341	insignificant	3.2		28
COc1cc(C=C(C(=O)OCCC(C)C)C(=O)OCCC(C)C)ccc1O [Di-isoamyl-3-methoxy-4-hydroxy benzylidene malonate]	333			3.8	9.5
CCCCC(CC)COC(=O)C(=Cc1ccc(O)c(OC)c1)C(=O)OCC(CC)CCCC (stereo not shown) [Di-(2-Ethylhexyl)-3-methoxy-4-hydroxy benzylidene malonate]	332			4.5	7.4
